Experimental data taken from US20220194997A1, “SUMO PEPTIDES FOR TREATING NEURODEGENERATIVE DISEASES” (The Chinese University of Hong Kong, priority 2019, published 2022).
Where no end group is shown, it is not given here.

How the values were obtained:
[1] = biological target: T1, α-synuclein (Homo sapiens, UniProt P37840); test: Fibrillation (Thioflavin T) assay of SDS-induced α-synuclein aggregation; type: biochemical
T1 construct: made in house; host or cells: Escherichia coli BL21(DE3), pET-28a (NcoI/XhoI)
Method: The reaction contained the mixture of 70 μM α-synuclein and different concentrations of SUMO1 variants, 40 μM Thioflavin T (ThT) (Sigma-Aldrich), 0.4 mM SDS in reaction buffer (20 mM HEPES, 150 mM NaCl, pH 7.4). Reactions were performed in quadruplicate in a black clear-bottomed 96-well plate (Nunc, Thermo Fisher Scientific) with a final volume of 150 μL. The plate was sealed with sealing membrane (Thermo Fisher Scientific) and loaded into an Infinite M1000 plate reader (Tecan), incubated at 37° C. without agitation. The fluorescence was detected at 30 min intervals, with excitation at 450 nm and with emission at 485 nm. Protein samples were analyzed after fibrillation assay using size-exclusion chromatography on a Superdex 200 GL 5/150 column (3 ml, GE Healthcare) in reaction buffer.
Sodium dodecyl sulfate (SDS) was added to mimic membrane environments and serve as nucleation scaffold to stimulate α-synuclein aggregation (Giehm et al., 2010).
Thioflavin T (ThT) assay was performed as previously described^5 with minor modifications. […] The potential pre-formed aggregates in α-synuclein were removed by centrifugation at 15,000 rpm for 15 min and filtering through a 0.2 μm filter before the experiments. Reactions were performed in a black clear-bottomed 96-well plate (Nunc, Thermo Fisher Scientific) sealed with clear adhesive sealing sheet (Thermo Fisher Scientific) to avoid evaporation and loaded into an Infinite® M1000 plate reader (Tecan), incubated at 37° C. for 7 days without agitation. The fluorescence was recorded at 485 nm with excitation wavelength of 450 nm at the interval of 30 min.

[2] = biological target: T1, α-synuclein; test: Microscale thermophoresis (MST) binding
Method: The labelling reaction was performed according to the manufacturer's instructions. Unreacted dye was removed with the dye removal column supplied in the Protein Labelling Kit RED-NHS (NanoTemper Technologies) or desalting column (Bio-Rad). […] The labelled targets were adjusted to appropriate concentration for detection. The ligands were dissolved in reaction buffer and a series of 16 1:1 dilutions was prepared. For the measurement, each ligand dilution was mixed with one volume of labelled protein target. After 10 min incubation, the samples were loaded into standard or premium Monolith NT.115 Capillaries (NanoTemper Technologies). MST was measured using a Monolith NT.115 instrument (NanoTemper Technologies) at an ambient temperature of 25° C. Instrument parameters were adjusted to 20% LED power and medium MST power. Data of three independently pipetted measurements were analyzed (MO.Affinity Analysis software version 2.1.3, NanoTemper Technologies) using the signal from an MST-on time of 5 s.
Unreacted dye was removed with desalting column (2K MWCO, Bio-Rad). The purity was monitored by measuring the ratio of protein to dye after the clean-up procedure. […]

[3] = tested on: SH-SY5Y cells; test: Cellular uptake of Alexa 488 labelled peptide, confocal microscopy; type: cell-based; conditions: 1 h and 24 h, time course
Method: SH-SY5Y cells were planted on 35 mm glass bottom confocal dishes and incubated overnight. After co-incubation with Alexa 488 labelled R8-SUMO1(31-55), cells were fixed with 4% paraformaldehyde for 15 min at room temperature at different time points and visualized by Leica TCS SP8 confocal microscope with 63X oil immersion objective.

[4] = tested on: α-synuclein-A30P transgenic Drosophila; test: Climbing assay after larval feeding; type: in vivo; conditions: larval feeding 60, 120 or 240 μM, pilot study
Excerpt: (§1) The following fly strains were adopted in this study: gmr-GAL4 (RRID: BDSC_1104), elav-GAL4 (RRID: BDSC_458), UAS-α-synuclein-A30P (RRID: BDSC_8147), and UAS-α-synuclein-A53T (RRID: BDSC_8148). All strains were obtained from the Bloomington Drosophila Stock Center. To obtain PD model flies, virgin flies carrying the driver gmr-GAL4 or elav-GAL4 on X chromosome were crossed to males from UAS-α-synuclein-A30P/UAS-α-synuclein-A53T stocks. The progeny of these crosses was maintained on standard cornmeal medium supplemented with dry yeast in 25° C. incubator.
(§2) Climbing assay was performed according to previously described^10. Briefly, a group of 10 flies from each condition were placed in individual plastic vial, and gently tapped to the bottom of the vail. The number of flies that could climb a height of 2 cm within 15 s was recorded. Each trial was repeated five times with 1 min recovery periods between each trials. Total 20 (10 males and 10 females) flies from each condition were tested for one genetic cross.

[5] = tested on: α-synuclein-A53T transgenic Drosophila; test: Climbing assay after larval feeding; type: in vivo; conditions: larval feeding 60, 120 or 240 μM, pilot study
Excerpt: as §1, §2

[6] = tested on: α-synuclein (wild-type) transgenic Drosophila; test: Climbing assay after larval feeding; type: in vivo; conditions: larval feeding 60, 120 or 240 μM, pilot study
[7] = equimolar ratio (1:1), 70 μM α-synuclein, 37° C., 7 days

Compound: CC[C@H](C)[C@H](NC(=O)[C@H](Cc1ccc(O)cc1)NC(=O)[C@H](CCC(=O)O)NC(=O)CNC(=O)[C@H](CCC(=O)O)NC(=O)[C@H](CCCCN)NC(=O)[C@H](CCCCN)NC(=O)[C@@H](N)CC(=O)O)C(=O)N[C@@H](CCCCN)C(=O)N[C@@H](CC(C)C)C(=O)N[C@@H](CCCCN)C(=O)N[C@H](C(=O)N[C@H](C(=O)NCC(=O)N[C@@H](CCC(N)=O)C(=O)N[C@@H](CC(=O)O)C(=O)N[C@@H](CO)C(=O)N[C@@H](CO)C(=O)N[C@@H](CCC(=O)O)C(=O)N[C@H](C(=O)N[C@@H](Cc1c[nH]cn1)C(=O)N[C@@H](Cc1ccccc1)C(=O)N[C@@H](CCCCN)C(=O)N[C@H](C(=O)N[C@@H](CCCCN)C(=O)N[C@@H](CCSC)C(=O)N[C@H](C(=O)N[C@H](C(=O)N[C@@H](Cc1c[nH]cn1)C(=O)N[C@@H](CCC(=O)O)C(=O)N[C@@H](CCCCN)C(=O)N[C@@H](CCCCN)C(=O)N[C@@H](CCCNC(=N)N)C(=O)N[C@@H](CCCCN)C(=O)N[C@@H](CCC(=O)O)C(=O)N[C@@H](CO)C(=O)N[C@@H](Cc1ccc(O)cc1)C(=O)N[C@@H](CS)C(=O)N[C@@H](CCC(N)=O)C(=O)N[C@@H](CCCNC(=N)N)C(=O)N[C@@H](CCC(N)=O)C(=O)O)[C@@H](C)O)[C@@H](C)O)C(C)C)[C@@H](C)CC)[C@@H](C)CC)C(C)C [SUMO1(15-55) (L44E, L47R)]
- inhibition of α-synuclein aggregation [1, 7]: much weaker inhibition effect
- binding ability to α-synuclein compared with that of SUMO1(15-55) [2]: around 1/40

Compound: His-SUMO1(31-55): SUMO1(31-55) with an N-terminal 10×His tag ({10xHis tag}-SSEIHFKVKMTTHLKKLKESYCQRQ; UniProt P63165 31-55, looked up, fragment)
- inhibition of α-synuclein aggregation ([1]; ratio of 1:5 or 1:10 α-synuclein: SUMO peptide inhibitor): partial inhibition

Compound: RRRRRRRRSSEIHFKVKMTTHLKKLKESYCQRQ [R8-SUMO1(31-55)]
- internalization into cells [3]: internalization into SH-SY5Y cells at a high efficiency

Compound: SUMO1(20-40): SUMO1 derived peptide, residues 20-40 (EYIKLKVIGQDSSEIHFKVKM; UniProt P63165 20-40, looked up, fragment)
- inhibition of α-synuclein aggregation [1, 7]: not effective

Compound: SUMO1(31-55): residues 31-55 of human SUMO1, a beta sheet followed by an alpha-helix (SSEIHFKVKMTTHLKKLKESYCQRQ)
- locomotor dysfunction (climbing) [4]: improved the locomotor dysfunction
- locomotor dysfunction (climbing) [5]: improved the locomotor dysfunction
- locomotor dysfunction (climbing) [6]: improved the locomotor dysfunction

Compound: SUMO2(16-51): residues 16-51 of human SUMO2, identical sequence to SUMO3(15-50) (DHINLKVAGQDGSVVQFKIKRHTPLSKLMKAYCERQ; UniProt P61956 16-51, looked up, fragment)
- inhibition of α-synuclein aggregation [1, 7]: suppressed
- delay of the initiation of the aggregation ([1]; half molar ratio): 2 days
